Results taken from ChEMBL document CHEMBL1201862, “PubChem BioAssay data set” (2004).
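Five compound concentrations were applied to cells in 96-well plates for 48 hours; endpoints were derived by simple linear interpolation of the resulting dose-response curve. GI50 is the concentration that inhibits growth by half.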 Active and inactive are the calls of the source. No stated cut-off is given here; in the data, active = GI50 up to about 1.1 µM and inactive = higher.

How the values were obtained:
Assay in all cases: NCI-60 cell line screen, 48 h
Hs-578T = test system: Hs-578T
K562 = test system: K562
SF-295 = test system: SF-295
CCRF-CEM = test system: CCRF-CEM
TK-10 = test system: TK-10
COLO 205 = test system: COLO 205
ACHN = test system: ACHN
NCI-H460 = test system: NCI-H460
LOX IMVI = test system: LOX IMVI
M14 = test system: M14
HCT-15 = test system: HCT-15
SF-268 = test system: SF-268
SNB-75 = test system: SNB-75
U-251 = test system: U-251
UO-31 = test system: UO-31
HL-60 = test system: HL-60
MDA-MB-231 = test system: MDA-MB-231
SK-MEL-28 = test system: SK-MEL-28
KM12 = test system: KM12
NCI-H522 = test system: NCI-H522
MOLT-4 = test system: MOLT-4
T47D = test system: T47D
NCI-H226 = test system: NCI-H226
MDA-MB-435 = test system: MDA-MB-435
SK-MEL-2 = test system: SK-MEL-2
SN12C = test system: SN12C
PC-3 = test system: PC-3
NCI-H23 = test system: NCI-H23
SK-MEL-5 = test system: SK-MEL-5
OVCAR-5 = test system: OVCAR-5
CAKI-1 = test system: CAKI-1
MDA-N = test system: MDA-N
SW-620 = test system: SW-620
UACC-62 = test system: UACC-62
SR = test system: SR
UACC-257 = test system: UACC-257
IGROV-1 = test system: IGROV-1
NCI/ADR-RES = test system: NCI/ADR-RES
HOP-62 = test system: HOP-62
A549 = test system: A549
RPMI-8226 = test system: RPMI-8226
EKVX = test system: EKVX
MCF7 = test system: MCF7
SF-539 = test system: SF-539
RXF 393 = test system: RXF 393
HCT-116 = test system: HCT-116
Malme-3M = test system: Malme-3M
DU-145 = test system: DU-145
OVCAR-8 = test system: OVCAR-8
HT-29 = test system: HT-29
OVCAR-3 = test system: OVCAR-3
HCC 2998 = test system: HCC 2998
SNB-19 = test system: SNB-19
BT-549 = test system: BT-549
786-0 = test system: 786-0
SK-OV-3 = test system: SK-OV-3
A498 = test system: A498
HOP-92 = test system: HOP-92
OVCAR-4 = test system: OVCAR-4

For Brc1ccc2c(-c3csc(-c4c[nH]c5ccc(Br)cc45)n3)c[nH]c2c1, the GI50 (Hs-578T) was 5780 nM (inactive), the GI50 (K562) was 3530 nM (inactive) and the GI50 (SF-295) was 3190 nM (inactive). For the same compound, the GI50 (CCRF-CEM) was 3790 nM (inactive), the GI50 (TK-10) was 3940 nM (inactive) and the GI50 (COLO 205) was 2880 nM (inactive). The GI50 (ACHN) was 2960 nM (inactive), the GI50 (NCI-H460) was 2440 nM (inactive) and the GI50 (LOX IMVI) was 1940 nM (inactive). For the same compound, the GI50 (M14) was 3120 nM (inactive), the GI50 (HCT-15) was 3380 nM and the GI50 (SF-268) was 3600 nM (inactive). The GI50 (SNB-75) was 10200 nM (inactive), the GI50 (U-251) was 4260 nM (inactive) and the GI50 (UO-31) was 3820 nM (inactive). The GI50 (HL-60) was 5220 nM (inactive), the GI50 (MDA-MB-231) was 3420 nM (inactive) and the GI50 (SK-MEL-28) was 7590 nM (inactive). The GI50 (KM12) was 2420 nM (inactive), the GI50 (NCI-H522) was 2110 nM (inactive) and the GI50 (MOLT-4) was 2840 nM (inactive). For the same compound, the GI50 (T47D) was 2940 nM (inactive), the GI50 (NCI-H226) was 3420 nM (inactive) and the GI50 (MDA-MB-435) was 4460 nM (inactive). The GI50 (SK-MEL-2) was 5350 nM (inactive), the GI50 (SN12C) was 5920 nM (inactive) and the GI50 (PC-3) was 4810 nM (inactive). For the same compound, the GI50 (NCI-H23) was 2870 nM (inactive), the GI50 (SK-MEL-5) was 3650 nM (inactive) and the GI50 (OVCAR-5) was 2440 nM (inactive). For the same compound, the GI50 (CAKI-1) was 3010 nM (inactive), the GI50 (MDA-N) was 5150 nM (inactive) and the GI50 (SW-620) was 3650 nM (inactive). For the same compound, the GI50 (UACC-62) was 3180 nM (inactive), the GI50 (SR) was 3890 nM (inactive) and the GI50 (UACC-257) was 7940 nM (inactive). The GI50 (IGROV-1) was 2430 nM (inactive), the GI50 (NCI/ADR-RES) was 4830 nM (inactive) and the GI50 (HOP-62) was 12100 nM (inactive). For the same compound, the GI50 (A549) was 4200 nM (inactive), the GI50 (RPMI-8226) was 3440 nM (inactive) and the GI50 (EKVX) was 1270 nM (inactive). For the same compound, the GI50 (MCF7) was 3820 nM (inactive), the GI50 (SF-539) was 3870 nM (inactive) and the GI50 (RXF 393) was 3020 nM (inactive). For the same compound, the GI50 (HCT-116) was 3640 nM (inactive), the GI50 (Malme-3M) was 5400 nM (inactive) and the GI50 (DU-145) was 3860 nM (inactive). For the same compound, the GI50 (OVCAR-8) was 5520 nM (inactive), the GI50 (HT-29) was 1760 nM (inactive) and the GI50 (OVCAR-3) was 6000 nM (inactive). For the same compound, the GI50 (HCC 2998) was 2320 nM (inactive), the GI50 (SNB-19) was 4090 nM (inactive) and the GI50 (BT-549) was 12600 nM (inactive). For the same compound, the GI50 (786-0) was 2310 nM (inactive), the GI50 (SK-OV-3) was 11200 nM (inactive) and the GI50 (A498) was 3010 nM (inactive). The GI50 (HOP-92) was 3200 nM (inactive) and the GI50 (OVCAR-4) was 6900 nM (inactive).
With CN(C)CCNC(=O)c1ccc(Cl)c2cc3ccccc3nc12 the GI50 (Hs-578T) was 759 nM (active), the GI50 (K562) was 553 nM (active) and the GI50 (SF-295) was 885 nM (active). For the same compound, the GI50 (CCRF-CEM) was 394 nM (active), the GI50 (TK-10) was 1070 nM (active) and the GI50 (COLO 205) was 446 nM (active). The GI50 (ACHN) was 424 nM (active), the GI50 (NCI-H460) was 218 nM (active) and the GI50 (LOX IMVI) was 230 nM (active). The GI50 (M14) was 1230 nM (inactive), the GI50 (HCT-15) was 540 nM and the GI50 (SF-268) was 962 nM (active). For the same compound, the GI50 (SNB-75) was 1670 nM (inactive), the GI50 (U-251) was 600 nM (active) and the GI50 (UO-31) was 404 nM (active). The GI50 (HL-60) was 608 nM (active), the GI50 (MDA-MB-231) was 1050 nM (active) and the GI50 (SK-MEL-28) was 1820 nM (inactive). The GI50 (KM12) was 807 nM (active), the GI50 (NCI-H522) was 612 nM (active) and the GI50 (MOLT-4) was 265 nM (active). The GI50 (T47D) was 3010 nM (inactive), the GI50 (NCI-H226) was 918 nM (active) and the GI50 (MDA-MB-435) was 951 nM (active). For the same compound, the GI50 (SK-MEL-2) was 2010 nM (inactive), the GI50 (SN12C) was 577 nM (active) and the GI50 (PC-3) was 807 nM (active). For the same compound, the GI50 (NCI-H23) was 632 nM (active), the GI50 (SK-MEL-5) was 1160 nM (inactive) and the GI50 (OVCAR-5) was 1830 nM (inactive). The GI50 (CAKI-1) was 448 nM (active), the GI50 (MDA-N) was 889 nM (active) and the GI50 (SW-620) was 453 nM (active). The GI50 (UACC-62) was 652 nM (active), the GI50 (SR) was 339 nM (active) and the GI50 (UACC-257) was 885 nM (active). The GI50 (IGROV-1) was 708 nM (active), the GI50 (NCI/ADR-RES) was 927 nM (active) and the GI50 (HOP-62) was 1000 nM (active). For the same compound, the GI50 (A549) was 389 nM (active), the GI50 (RPMI-8226) was 463 nM (active) and the GI50 (EKVX) was 1700 nM (inactive). For the same compound, the GI50 (MCF7) was 381 nM (active), the GI50 (SF-539) was 946 nM (active) and the GI50 (RXF 393) was 1070 nM (active). The GI50 (HCT-116) was 408 nM (active), the GI50 (Malme-3M) was 731 nM (active) and the GI50 (DU-145) was 991 nM (active). The GI50 (OVCAR-8) was 481 nM (active), the GI50 (HT-29) was 422 nM (active) and the GI50 (OVCAR-3) was 1220 nM (inactive). For the same compound, the GI50 (HCC 2998) was 1160 nM (inactive), the GI50 (SNB-19) was 998 nM (active) and the GI50 (BT-549) was 2350 nM (inactive). The GI50 (786-0) was 362 nM (active), the GI50 (SK-OV-3) was 2060 nM (inactive) and the GI50 (A498) was 143 nM (active). The GI50 (HOP-92) was 187 nM (active) and the GI50 (OVCAR-4) was 653 nM (active).
